Reference: patent US8748417B2, “Amino-pyrrolidine-azetidine diamides as monoacylglycerol lipase inhibitors” (Janssen Pharmaceutica, NV, priority 2010, dated 2014)
Substitutions are numbered along the chain they refer to.

Legend:
[1] = target: T1, purified wild type MGL (wt-MGLL 6H-11-313) (Homo sapiens, UniProt Q99685); assay: MGL enzyme activity assay (4MU-B cleavage), wild type MGL; assay type: biochemical; settings: wild type MGL 5 nM, 4MU-B 10 μM, 37° C.; read-out: MGL wild type inh IC50
T1 construct: purified wild type MGL (wt-MGLL 6H-11-313)
T1 sequence (Q99685 1-303): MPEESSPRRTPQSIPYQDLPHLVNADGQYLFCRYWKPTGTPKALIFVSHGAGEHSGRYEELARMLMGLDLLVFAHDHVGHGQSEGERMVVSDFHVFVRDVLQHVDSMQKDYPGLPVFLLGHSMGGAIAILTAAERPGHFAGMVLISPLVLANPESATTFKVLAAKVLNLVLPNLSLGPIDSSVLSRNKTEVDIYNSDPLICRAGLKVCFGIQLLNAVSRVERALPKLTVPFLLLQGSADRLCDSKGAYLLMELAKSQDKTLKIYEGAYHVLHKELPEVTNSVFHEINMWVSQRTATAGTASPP
Outline: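 Enzyme in 20 mM PIPES pH 7.0, 150 mM NaCl, 0.001% Tween 20 with 4MU-B at 10 μM final and MGL at 5 nM final; compounds 17 to 0.0003 μM final, enzyme added last. Fluorescence (ex 335/em 440 nm) followed at 37° C for 5 min; IC50 from fit of fractional activity versus inhibitor concentration.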

[2] = test system: MGL (rat brain homogenate); assay: 2-AG accumulation assay in rat brain homogenate; assay type: biochemical; settings: compound 1 μM, percent of vehicle 2-AG accumulation
Outline: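 Rat brain homogenate was incubated with compound for 15 min at 37° C., after which CaCl2 was added to a final concentration of 10 mM and incubation continued for 15 min at 37° C. in 5 mL total. Reactions were stopped with 6 mL of 2:1 chloroform/methanol, and 2-AG accumulated in the organic phase was quantified by HPLC/MS.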

mutant MGL = target: T2, mutant MGL (Homo sapiens, UniProt Q99685, L169S/L176S); assay: MGL ThermoFluor assay - mutant; assay type: binding; settings: qNMR-corrected compound concentration; read-out: MGL mutant ThermoFluor qKd
T2 construct: purified mutant MGL (mut-MGLL 11-313 L179S L186S)
T2 sequence (Q99685 1-303 L169S/L176S): T1 sequence (Q99685 1-303) with L169S, L176S
Experimental: The ThermoFluor (TF) assay is a 384-well plate-based binding assay that measures thermal stability of proteins^1,2. The experiments were carried out using instruments available from Johnson & Johnson Pharmaceutical Research & Development, LLC. TF dye used in all experiments was 1,8-ANS (Invitrogen: A-47). Final TF assay conditions used for MGL studies were 0.07 mg/ml of mutant MGL, 100 μM ANS, 200 mM NaCl, 0.001% Tween-20 in 50 mM PIPES (pH=7.0).
Screening compound plates contained 100% DMSO compound solutions at a single concentration. For follow-up concentration-response studies, compounds were arranged in a pre-dispensed plate (Greiner Bio-one: 781280), wherein compounds were serially diluted in 100% DMSO across 11 columns within a series. Columns 12 and 24 were used as DMSO reference and contained no compound. For both single and multiple compound concentration-response experiments, the compound aliquots (46 nL) were robotically predispensed directly into 384-well black assay plates (Abgene: TF-0384/k) using the Hummingbird liquid handler. Following compound dispension, protein and dye solutions were added to achieve the final assay volume of 3 μL. The assay solutions were overlayed with 1 μL of silicone oil (Fluka, type DC 200: 85411) to prevent evaporation.
Bar-coded assay plates were robotically loaded onto a thermostatically controlled PCR-type thermal block and then heated from 40 to 90° C. degrees at a ramp-rate of 1° C./min for all experiments. Fluorescence was measured by continuous illumination with UV light (Hamamatsu LC6), supplied via fiber optics and filtered through a band-pass filter (380-400 nm; >6 OD cutoff). Fluorescence emission of the entire 384-well plate was detected by measuring light intensity using a CCD camera (Sensys, Roper Scientific) filtered to detect 500±25 nm, resulting in simultaneous and independent readings of all 384 wells. A single image with 20-sec exposure time was collected at each temperature, and the sum of the pixel intensity in a given area of the assay plate was recorded vs temperature and fit to standard equations to yield the Tm^1. • 1. Pantoliano, M. W., Petrella, E. C., Kwasnoski, J. D., Lobanov, V. S., Myslik, J., Graf, E., Carver, T., Asel, E., Springer, B. A., Lane, P., and Salemme, F. R. (2001) J Biomol Screen 6, 429-40. • 2. Matulis, D., Kranz, J. K., Salemme, F. R., and Todd, M. J. (2005) Biochemistry 44, 5258-66.
The Kd values for certain compounds of Formula (I) were determined from a fit of the equation to the concentration-response plot of the fractional activity as a function of […]. For some experiments, quantitative NMR spectroscopy (qNMR) was used to measure concentration of the initial 100% DMSO compound solutions and, using the same fitting method, qKd values were determined.

Compound	IC50 [1] [nM]	Kd (mutant MGL) [nM]	Rat Brain 2AG % VehCntrl (%) @1 μM [2] [%]
O=C(c1ccc2c(-c3cccc(F)c3)c[nH]c2c1)N1CC(N[C@H]2CCN(C(=O)c3nccs3)C2)C1 [Cpd 202, (3S)-N-(1-{[3-(3-Fluorophenyl)-1H-indol-6-yl]carbonyl}azetidin-3-yl)-1-(1,3-thiazol-2-ylcarbonyl)pyrrolidin-3-amine]	11	56.3	363
O=C(c1ccc2c(-c3cccc(F)c3)c[nH]c2c1)N1CC(N[C@H]2CCN(C(=O)c3cscn3)C2)C1 [Cpd 203, (3S)-N-(1-{[3-(3-Fluorophenyl)-1H-indol-6-yl]carbonyl}azetidin-3-yl)-1-(1,3-thiazol-4-ylcarbonyl)pyrrolidin-3-amine]	50.4	264	238
O=C(c1ccc2c(-c3cccc(F)c3)c[nH]c2c1)N1CC(N[C@H]2CCN(C(=O)c3ccccc3)C2)C1 [Cpd 204, (3S)-N-(1-{[3-(3-Fluorophenyl)-1H-indol-6-yl]carbonyl}azetidin-3-yl)-1-(phenylcarbonyl)pyrrolidin-3-amine]	344	186	
Cn1cc(-c2cccc(F)c2)c2ccc(C(=O)N3CC(N[C@H]4CCN(C(=O)c5nccs5)C4)C3)cc21 [Cpd 205, (3S)-N-(1-{[3-(3-Fluorophenyl)-1-methyl-1H-indol-6-yl]carbonyl}azetidin-3-yl)-1-(1,3-thiazol-2-ylcarbonyl)pyrrolidin-3-amine]	< 5	21.4	446
Cn1cc(-c2cccc(F)c2)c2ccc(C(=O)N3CC(N[C@H]4CCN(C(=O)c5cscn5)C4)C3)cc21 [Cpd 206, (3S)-N-(1-{[3-(3-Fluorophenyl)-1-methyl-1H-indol-6-yl]carbonyl}azetidin-3-yl)-1-(1,3-thiazol-4-ylcarbonyl)pyrrolidin-3-amine]	81	122	267
Cn1cc(-c2cccc(F)c2)c2ccc(C(=O)N3CC(N[C@H]4CCN(C(=O)c5ccccc5)C4)C3)cc21 [Cpd 207, (3S)-N-(1-{[3-(3-Fluorophenyl)-1-methyl-1H-indol-6-yl]carbonyl}azetidin-3-yl)-1-(phenylcarbonyl)pyrrolidin-3-amine]	63.9	100	238
O=C(c1ccc2c(ccn2CC(F)F)c1)N1CC(N[C@H]2CCN(C(=O)c3nccs3)C2)C1 [Cpd 213, (3S)-N-(1-{[1-(2,2-Difluoroethyl)-1H-indol-5-yl]carbonyl}azetidin-3-yl)-1-(1,3-thiazol-2-ylcarbonyl)pyrrolidin-3-amine]	1390	963	

Now from value to compound, other results behind:

IC50 [1] [nM]	Kd (mutant MGL) [nM]	Compound	Rat Brain 2AG % VehCntrl (%) @1 μM [2] [%]
106	530	O=C(c1nccs1)N1CC[C@H](NC2CN(C(=O)c3cccc4c3ccn4-c3ccc(F)cc3)C2)C1 [Cpd 214, (3S)-N-(1-{[1-(4-Fluorophenyl)-1H-indol-4-yl]carbonyl}azetidin-3-yl)-1-(1,3-thiazol-2-ylcarbonyl)pyrrolidin-3-amine]	524
668	1440	O=C(c1cscn1)N1CC[C@H](NC2CN(C(=O)c3cccc4c3ccn4-c3ccc(F)cc3)C2)C1 [Cpd 215, (3S)-N-(1-{[1-(4-Fluorophenyl)-1H-indol-4-yl]carbonyl}azetidin-3-yl)-1-(1,3-thiazol-4-ylcarbonyl)pyrrolidin-3-amine]	
94.5	462	O=C(c1nccs1)N1CC[C@H](NC2CN(C(=O)c3cccc4c3CCN4c3ccc(F)cc3)C2)C1 [Cpd 216, (3S)-N-(1-{[1-(4-Fluorophenyl)-2,3-dihydro-1H-indol-4-yl]carbonyl}azetidin-3-yl)-1-(1,3-thiazol-2-ylcarbonyl)pyrrolidin-3-amine]	260
723	1960	O=C(c1cscn1)N1CC[C@H](NC2CN(C(=O)c3cccc4c3CCN4c3ccc(F)cc3)C2)C1 [Cpd 217, (3S)-N-(1-{[1-(4-Fluorophenyl)-2,3-dihydro-1H-indol-4-yl]carbonyl}azetidin-3-yl)-1-(1,3-thiazol-4-ylcarbonyl)pyrrolidin-3-amine]	
1890	3450	O=C(c1nccs1)N1CC[C@H](NC2CN(C(=O)c3cn(-c4cccc(F)c4)c4ccccc34)C2)C1 [Cpd 218, (3S)-N-(1-{[1-(3-Fluorophenyl)-1H-indol-3-yl]carbonyl}azetidin-3-yl)-1-(1,3-thiazol-2-ylcarbonyl)pyrrolidin-3-amine]	
4980	4980	O=C(c1nccs1)N1CC[C@H](NC2CN(C(=O)c3cn(-c4ccc(F)cc4)c4ccccc34)C2)C1 [Cpd 219, (3S)-N-(1-{[1-(4-Fluorophenyl)-1H-indol-3-yl]carbonyl}azetidin-3-yl)-1-(1,3-thiazol-2-ylcarbonyl)pyrrolidin-3-amine]	
< 5	88.5	Cn1cc(Cc2ccc(F)cc2)c2ccc(C(=O)N3CC(N[C@H]4CCN(C(=O)c5nccs5)C4)C3)cc21 [Cpd 221, (3S)-N-(1-{[3-(4-Fluorobenzyl)-1-methyl-1H-indol-6-yl]carbonyl}azetidin-3-yl)-1-(1,3-thiazol-2-ylcarbonyl)pyrrolidin-3-amine]	878
1680	3240	CN(C(=O)Cn1ccc2cc(C(=O)N3CC(N[C@H]4CCN(C(=O)c5nccs5)C4)C3)ccc21)c1ccccc1 [Cpd 222, N-Methyl-N-phenyl-2-{5-[(3-{[(3S)-1-(1,3-thiazol-2-ylcarbonyl)pyrrolidin-3-yl]amino}azetidin-1-yl)carbonyl]-1H-indol-1-yl}acetamide]	
14	143	O=C(c1nccs1)N1CC[C@H](NC2CN(C(=O)c3ccc4c(ccn4-c4ccc(F)cc4)c3Cl)C2)C1 [Cpd 223, (3S)-N-(1-{[4-Chloro-1-(4-fluorophenyl)-1H-indol-5-yl]carbonyl}azetidin-3-yl)-1-(1,3-thiazol-2-ylcarbonyl)pyrrolidin-3-amine]	
224	218	Cc1cc2c(ccn2-c2ccc(F)cc2)cc1C(=O)N1CC(N[C@H]2CCN(C(=O)c3nccs3)C2)C1 [Cpd 224, (3S)-N-(1-{[1-(4-Fluorophenyl)-6-methyl-1H-indol-5-yl]carbonyl}azetidin-3-yl)-1-(1,3-thiazol-2-ylcarbonyl)pyrrolidin-3-amine]	
39.2	102	O=C(c1nccs1)N1CC[C@H](NC2CN(C(=O)c3cc4ccn(-c5ccc(F)cc5)c4cc3Cl)C2)C1 [Cpd 225, (3S)-N-(1-{[6-Chloro-1-(4-fluorophenyl)-1H-indol-5-yl]carbonyl}azetidin-3-yl)-1-(1,3-thiazol-2-ylcarbonyl)pyrrolidin-3-amine]	
